What was measured:
[1] = test system: patients with stable angina; assay: Blinded, randomized, controlled Phase 2 study IMB101-006 […]: spontaneously reported renal and urinary findings; assay type: in vivo, human; conditions: 200 mg MR BID for 8 weeks, blinded (N=22)
Description: (§1) In the early Phase 1 study in healthy volunteers and early Phase 2 studies in patients, there were instances of increased urine volume and increased urinary frequency spontaneously reported. • In the first-in-man study, CIMB8972-101, healthy volunteers were dosed with single doses of IMB-1018972 at 50 mg or 200 mg of the modified release (MR) formulation. Two of 12 subjects [2/12] (16.7%) reported 5 events of pollakiuria at both doses. • In an open label Phase 2 study (IMB101-005 DICE) treating patients with Type 2 Diabetes mellitus and obesity for 8 weeks with 200 mg MR BID, two of 22 patients [2/22] (9.1%) spontaneously reported renal and urinary findings. One patient reported pollakiuria and one patient reported increased nocturnal urinary frequency. • In a blinded, randomized, controlled, Phase 2 study (IMB101-006 […]) treating patients with stable angina for 8 weeks with 200 mg MR BID, one of 22 patients [1/22] (4.5%) spontaneously reported renal and urinary findings. One patient reported polyuria.

[2] = test system: healthy subjects; assay: FIH study, multiple-dose MR part: safety and tolerability; assay type: in vivo, human
Description: (§2) AEs were recorded from (first) admission until completion of the follow-up visit. Any clinically significant observations in results of clinical laboratory, 12-lead ECGs, vital signs, or physical examinations were recorded as AEs.
(§3) A treatment-emergent AE (TEAE) was defined as any event not present prior to (the first) administration of the study drug or any event already present that worsened in either severity or frequency following exposure to the study drug.
(§4) At several time points before and after drug administration, subjects were asked nonleading questions to determine the occurrence of AEs. Subjects were asked in general terms about any AEs at regular intervals during the study. In addition, all AEs reported spontaneously during the course of the study were recorded. Details included description of the event, date and time of onset, date and time of end, total duration, severity, relationship to study drug, intervention, seriousness, and outcome. All answers were interpreted by the Investigator and were recorded in the eCRF. All AEs were classified according to the Medical Dictionary for Regulatory Activities (MedDRA; Version 22.0) for AEs.
(§5) The severity of the AEs was rated as mild, moderate, or severe; the relationship between the AEs and the study drug was indicated as none, unlikely, possibly, likely, or definitely. Adverse events assessed as possibly, likely, or definitely were considered related to the study drug; AEs assessed as none or unlikely were considered not related to the study drug.

[3] = test system: dog; assay: 28-day dog study (nonclinical toxicology: NOAEL and exposure); conditions: in vivo
Description: Based on the nonclinical toxicology data, it was considered that subjects in this clinical study were not at unreasonable risk of adverse effects. […] For a 60-kg individual, the NOAEL dose would be 6480 mg. With a 10-fold safety factor applied, this would allow for a maximum recommended starting dose (MRSD) of 648 mg/day.7,8 The planned starting dose in the current Phase 1 study was 50 mg, equivalent to 0.83 mg/kg/day for a 60-kg subject. This starting dose is less than 10% of the MRSD determined from the dog NOAEL and less than 1% of the dog NOAEL
The relevant animal study was the 28-day dog study where the NOAEL for IMB-1018972 was 200 mg/kg/day.

[4] = test system: healthy subjects; assay: FIH study, SAD part (and integrated FE arm): safety and tolerability
Description: In Groups A1, A2, A3, and A4, subjects received a single oral dose of an IR formulation of IMB-1018972 or placebo under fasted conditions (an overnight fast of at least 10 hours). […] Each subject participated in only 1 group during the study.
as §2, §3, §4, §5
(§6) The following parameters were measured: • Clinical chemistry (serum quantitatively): total bilirubin, alkaline phosphatase, gamma glutamyl transferase, aspartate aminotransferase (AST), alanine aminotransferase (ALT), lactate dehydrogenase, creatinine, urea, total protein, glucose, inorganic phosphate, sodium, potassium, • calcium, and chloride • Hematology (blood quantitatively): leukocytes, erythrocytes, hemoglobin, hematocrit, thrombocytes, partial automated differentiation (lymphocytes, monocytes, eosinophils, basophils, and neutrophils), mean corpuscular volume, mean corpuscular hemoglobin, and mean corpuscular hemoglobin concentration • Coagulation (blood quantitatively): prothrombin time (reported in seconds and as international normalized ratio), activated partial thromboplastin time, and fibrinogen • Urinalysis (urine qualitatively): hemoglobin, urobilinogen, ketones, glucose, and protein • Serology: HBsAg, anti-HCV, and anti-HIV 1 and 2 • Drug and alcohol screen: opiates, methadone, cocaine, amphetamines (including ecstasy), cannabinoids, barbiturates, benzodiazepines, tricyclic antidepressants, and alcohol • Pregnancy test (females only): (3-human chorionic gonadotropin in serum
Systolic and diastolic blood pressure and pulse were recorded after the subject had been resting for at least 5 minutes in the supine position. These assessments were made using an automated device. Body temperature and respiratory rate were measured subsequently.
The ECG was recorded using an ECG machine equipped with computer-based interval measurements (with no/minimal disturbance by procedures). The following ECG parameters were recorded: heart rate, PR-interval, QRS-duration, QT-interval, QTcF-interval, and the interpretation of the ECG profile by the Investigator.
In the SAD part (not in the second period of the FE group A4, and not in Group A5), a 12-lead ECG was recorded continuously by telemetry from 2 hours before to 24 hours after drug administration on Day 1.

[5] = test system: patients with Type 2 Diabetes mellitus and obesity; assay: Open label Phase 2 study IMB101-005 DICE: spontaneously reported renal and urinary findings; assay type: in vivo, human; conditions: 200 mg MR BID for 8 weeks (N=22)
Description: as §1

[6] = test system: healthy subjects; assay: FIH study, single-dose MR part: safety and tolerability; assay type: in vivo, human; conditions: for ALT, Subject 505: normal range 0-68 IU/L
Description: The subjects received a single oral dose of 1 of 4 MR formulations of IMB-1018972 under fasted conditions (an overnight fast of at least 10 hours) on Days 1, 4, 7, and 10 in a fixed order that was the same for all subjects. The MR formulation of IMB-1018972 to be administered on Day 13 under fed conditions was 1 of the 4 MR formulations administered on Days 1, 4, 7, and 10 under fasted conditions. The formulation chosen for administration on Day 13 was the 200 mg 8-hour MR formulation as determined by the Sponsor based on the available safety, tolerability, and PK results of the 4 MR formulations.
as §2, §3, §4, §5, §6

[7] = 150 mg IMB-1018972 fasted (fasted-fed group)
[8] = 150 mg IMB-1018972 fed (fasted-fed group)
[9] = SAD part, all IMB-1018972 doses (N=24)
[10] = 50 mg 4-hour MR formulation of IMB-1018972, fasted
[11] = 200 mg 4-hour MR formulation of IMB-1018972, fasted
[12] = single doses of 50 mg or 200 mg MR IMB-1018972 (N=12)
[13] = single-dose MR part, IMB-1018972 (N=12)
[14] = single-dose MR part, of 37 TEAEs

## COc1ccc(CN2CCN(CCOC(=O)c3cccnc3)CC2)c(OC)c1OC [IMB-1018972, 2-[4-[(2,3,4-trimethoxyphenyl)methyl]piperazin-1-yl]ethyl pyridine-3-carboxylate]
[1]
  Patients reporting polyuria: One
  Patients spontaneously reporting renal and urinary findings: 4.5%
[2]; 200 mg 8-hour MR q12h, fed
  Severity of flushing (2 subjects): mild
[2]; multiple-dose MR part
  Severity of all TEAEs: mild
[2]; multiple-dose MR part (N=12)
  Number of TEAEs: 40
  Number of TEAEs considered not related to the study drug: 30
  Number of TEAEs considered related to the study drug: 10
  Number of TEAEs, SOC gastrointestinal disorders: 9
  Number of TEAEs, SOC general disorders and administration site conditions: 4
  Number of TEAEs, SOC musculoskeletal and connective tissue disorders: 4
  Number of TEAEs, SOC nervous system disorders: 9
  Number of TEAEs, SOC renal and urinary disorders (pollakiuria): 4
  Number of drug-related TEAEs of flushing: 2
  Number of drug-related TEAEs of pollakiuria: 4
  Number of drug-related TEAEs, nervous system disorders: 2
  Subjects reporting TEAEs: 100%
  Subjects reporting TEAEs considered not related to the study drug: 75%
  Subjects reporting TEAEs considered related to the study drug: 58.3%
  Subjects reporting TEAEs, SOC gastrointestinal disorders: 41.7%
  Subjects reporting TEAEs, SOC general disorders and administration site conditions: 33.3%
  Subjects reporting TEAEs, SOC musculoskeletal and connective tissue disorders: 33.3%
  Subjects reporting TEAEs, SOC nervous system disorders: 58.3%
  Subjects reporting TEAEs, SOC renal and urinary disorders (pollakiuria): 33.3%
  Subjects reporting drug-related TEAEs of flushing: 16.7%
  Subjects reporting drug-related TEAEs of pollakiuria: 33.3%
  Subjects reporting drug-related TEAEs, nervous system disorders: 16.7%
[3]
  NOAEL dose for a 60-kg individual (HED): 6480 mg
[3]; 28 days
  Maximum recommended starting dose (MRSD), 10-fold safety factor: 648 mg/day
[4]; 50 mg IMB-1018972 fasted
  Number of TEAEs: 3
  Subjects reporting TEAEs: 50.0%
[4]; 150 mg IMB-1018972 fasted
  Number of TEAEs: 5
  Subjects reporting TEAEs: 50.0%
[4]; [7]
  Number of TEAEs: 17
  Subjects reporting TEAEs: 66.7%
[4]; [8]
  Number of TEAEs: 4
  Subjects reporting TEAEs: 20%
[4]; 400 mg IMB-1018972 fasted
  Number of TEAEs: 16
  Subjects reporting TEAEs: 100%
[4]; FE arm of the SAD part, 150 mg
  Effect of dosing under fed conditions on number and incidence of TEAEs: appeared to attenuate
[4]; SAD part
  Severe TEAEs: No severe TEAEs
[4]; SAD part, IMB-1018972
  Number of TEAEs of flushing: 6
  Number of TEAEs of flushing of mild severity: 1
  Number of TEAEs of flushing of moderate severity: 5
[4]; SAD part, IMB-1018972 (N=24)
  Number of TEAEs considered related to the study drug: 21
  Number of TEAEs, SOC gastrointestinal disorders: 9
  Number of TEAEs, SOC general disorders and administration site conditions: 9
  Number of TEAEs, SOC nervous system disorders: 9
  Number of TEAEs, SOC skin and subcutaneous tissue disorders: 4
  Number of TEAEs, SOC vascular disorders: 7
  Number of drug-related TEAEs, nervous system disorders: 5
  Number of drug-related TEAEs, vascular disorders (flushing): 6
  Subjects reporting TEAEs considered related to the study drug: 29.2%
  Subjects reporting TEAEs, SOC gastrointestinal disorders: 16.7%
  Subjects reporting TEAEs, SOC general disorders and administration site conditions: 20.8%
  Subjects reporting TEAEs, SOC nervous system disorders: 29.2%
  Subjects reporting TEAEs, SOC skin and subcutaneous tissue disorders: 16.7%
  Subjects reporting TEAEs, SOC vascular disorders: 29.2%
  Subjects reporting drug-related TEAEs, nervous system disorders: 16.7%
  Subjects reporting drug-related TEAEs, vascular disorders (flushing): 25%
[4]; [9]
  Number of TEAEs: 45
  Subjects reporting TEAEs: 66.7%
[4]; SAD part, of 48 TEAEs with IMB-1018972 or placebo
  Number of TEAEs of moderate severity: 11
[4]; following 50 mg and 150 mg (fasted only group) IMB-1018972
  Drug-related TEAEs: No drug-related TEAEs
[4]; single 150 mg IMB-1018972, fasted, FE arm
  Subjects who reported flushing: 2 subjects
[4]; single 400 mg IMB-1018972, fasted
  Subjects who reported flushing: Four
[4]; single oral IMB-1018972 50, 150, 400 mg fasted and 150 mg fed
  Tolerability: well tolerated
[5]
  Patients reporting increased nocturnal urinary frequency: one
  Patients reporting pollakiuria: One
  Patients spontaneously reporting renal and urinary findings: 9.1%
[6]; [10]
  Number of TEAEs: 9
  Subjects reporting TEAEs: 50%
[6]; 50 mg and 200 mg MR formulations (4-hour, 8-hour) fasted, 200 mg 8-hour MR fed, except 1 subject with elevated ALT
  Tolerability: well tolerated
[6]; [11]
  Number of TEAEs: 11
  Subjects reporting TEAEs: 66.7%
[6]; Day 2, MR doses on Days 1, 4, 7, 10
  ALT, Subject 505: 31 IU/L
[6]; Day 5
  ALT, Subject 505: 72 IU/L
[6]; Day 8
  ALT, Subject 505: 97 IU/L
[6]; Day 11 (highest)
  ALT, Subject 505: 149 IU/L
[6]; Day 14
  ALT, Subject 505: 102 IU/L
[6]; Day 16
  ALT, Subject 505: 84 IU/L
[6]; follow-up Day 24
  ALT, Subject 505: 42 IU/L
[6]; [12]
  Number of drug-related TEAEs (events) of pollakiuria (renal and urinary disorders): 5
  Subjects reporting pollakiuria: 16.7%
[6]; single-dose MR part
  Dose or dissolution time dependency of number and incidence of TEAEs: no apparent dose or dissolution time dependency
  Moderate TEAE of ALT increased (1 subject, withdrawn): relationship to the study drug (Investigator): possibly related
  Number of drug-related TEAEs of ALT increased: 1
  Number of drug-related TEAEs of headache: 1
  Severe TEAEs: No severe TEAEs
  TEAEs of flushing: No TEAEs of flushing
[6]; single-dose MR part (N=12)
  Number of TEAEs considered not related to the study drug: 30
  Number of TEAEs considered related to the study drug: 7
  Number of TEAEs, SOC gastrointestinal disorders: 5
  Number of TEAEs, SOC general disorders and administration site conditions: 11
  Number of TEAEs, SOC nervous system disorders: 8
  Subjects reporting TEAEs considered not related to the study drug: 83.3%
  Subjects reporting TEAEs considered related to the study drug: 33.3%
  Subjects reporting TEAEs, SOC gastrointestinal disorders: 33.3%
  Subjects reporting TEAEs, SOC general disorders and administration site conditions: 58.3%
  Subjects reporting TEAEs, SOC nervous system disorders: 58.3%
[6]; single-dose MR part, 200 mg 8-hour MR
  Difference between fasted and fed administration for number and incidence of TEAEs: no clear difference
[6]; [13]
  Number of TEAEs: 37
  Subjects reporting TEAEs: 83.3%
[6]; [14]
  Number of TEAEs of mild severity: Thirty-six
  Number of TEAEs of moderate severity: 1
[6]; throughout the entire period
  AST levels, Subject 505: within normal range

— patent US12285428B2 (IMBRIA PHARMACEUTICALS, INC., priority 2021, dated 2025)
